Laboratory results taken from patent US8501911B2, “Methods of reducing inflammation and mucus hypersecretion” (Biomarck Pharmaceuticals, Ltd, priority 1999, dated 2013).
Each block holds one compound with its values, some of them ahead of it. Residues, ends and D or L forms follow the SMILES beside them. *: point of attachment. Myristoyl = CCCCCCCCCCCCCC(=O)*

Tests used:
[1] = tested on: NHBE cells; assay: PMA+8-Br-cGMP-induced mucin secretion from NHBE cells (ELISA); assay type: cell-based, human; conditions: pre- and co-incubation with 100 nM PMA+1 μM 8-Br-cGMP (Results-M-1A/M-3A)
Description: Peptide Blocking Studies—NHBE cells were preincubated with either the MANS or the RNS peptide (1-100 μM) for 15 min, and then PMA (100 nM)+8-Br-cGMP (1 μM) or UTP (100 μM) was added, and cells were incubated for an additional 15 min or 2 h. respectively. Mucin secretion was measured by ELISA and experimental results are designated as Results-I-2B-1 and Results-I-2B-2, as follows. […]
Measurement of Mucin Secretion by ELISA—Before collection of “base line” and “test” mucin samples, the accumulated mucus at the apical surface of the cells was removed by washing with phosphate-buffered saline, pH 7.2. To collect the base-line secretion, cells were incubated with medium alone, and secreted mucin in the apical medium was collected and reserved. Cells were rested for 24 h and then exposed to medium containing the selected stimulatory and/or inhibitory reagents (or appropriate controls), after which secreted mucin was collected and reserved as the test sample. Incubation times for the base line and the test were the same but varied depending on the test reagent utilized. Both base line and test secretions were analyzed by ELISA using an antibody capture method as known in the art. See, e.g., Harlow et al., Antibodies: A Laboratory Manual, pp. 570-573, Cold Spring Harbor Laboratory, Cold Spring Harbor, N.Y. (1988). The primary antibody for this assay was 17Q2 (Babco, Richmond, Calif.), a monoclonal antibody that reacts specifically with a carbohydrate epitope on human airway mucins. The ratio of test/base-line mucin, which is similar to a “secretory index”, was used to quantify mucin secretion, allowing each culture dish to serve as its own control and thus, minimizing deviation caused by variability among culture wells. Wright et al., Am. J. Physiol. 271, L854-L861 (1996). Levels of mucin secretion were reported as percentage of the medium control.
MARCKS-related Peptides—Both the myristoylated N-terminal sequence (MANS) and the random N-terminal sequence (RNS) peptides were synthesized at Genemed Synthesis, Inc. (San Francisco, Calif.), then purified by high pressure liquid chromatography (>95% pure), and confirmed by mass spectroscopy with each showing one single peak with an appropriate molecular mass. The MANS peptide consisted of sequence identical to the first 24 amino acids of MARCKS, i.e. the myristoylated N-terminal region that mediates MARCKS insertion into membranes, MA-[…] (SEQ ID NO: 1) (where MA=N-terminal myristate chain). The corresponding control peptide (RNS) contained the same amino acid composition as the MANS but arranged in random order, MA-[…] (SEQ ID NO: 26). The presence of the hydrophobic myristate moiety in these synthetic peptides enhances their permeability to the plasma membranes, enabling the peptides to be taken up readily by cells. To determine the effects of these peptides on mucin secretion, cells were preincubated with the peptides for 15 min prior to addition of secretagogues, and mucin secretion was then measured by ELISA.
Antisense Oligonucleotides—MARCKS antisense oligonucleotide and its corresponding control oligonucleotide were synthesized at Biognostik GmbH (Gottingen, Germany). NHBE cells were treated with 5 μM antisense or control oligonucleotide apically for 3 days (in the presence of 2 μg/ml lipofectin for the first 24 h). Cells were then incubated with secretagogues, and mucin secretion was measured by ELISA. Total RNA and protein were isolated from treated cells. MARCKS mRNA was assessed by Northern hybridization according to conventional procedures using human MARCKS cDNA as a probe. MARCKS protein level was determined by Western blot using purified anti-MARCKS IgG1 (clone 2F12) as the primary detection antibody.
The effect on mucus secretion of a myristoylated peptide containing the first 24 amino acids of the human MARCKS protein (MANS; myristoylated N-terminal sequence; SEQ ID NO: ) was tested. Cultured normal human bronchial epithelial cells as described above were used. […]

[2] = tested on: human bronchial epithelial cells; assay: Basal (constitutive) mucin secretion by human bronchial epithelial cells; assay type: cell-based; conditions: one hour incubation
Description: Mucus secreted from the airway epithelial cells in vitro after stimulation by activators was assessed using an ELISA (antibody capture method) (E. Harlow, D. Lane. “Antibodies: A Laboratory Manual.” New York: Cold Spring Harbor Laboratory Press, 1988), wherein the collected mucus is bound directly to the ELISA plate. Mucus was detected using an antibody raised against monkey airway mucus (Lin et al. Am J Respir Cell Mol Biol 1:41, 1989).
The MANS peptide (100 μM) was also found to decrease constitutive (basal) mucus secretion by one hour incubation. Cells were treated as described above except that no PMA or 8-Br-cGMP was used. […] Results, designated as Results-M-1B, are presented as follows and show the inhibition of basal mucin secretion by human bronchial epithelial cells exposed to the MANS peptide (SEQ ID NO: 1) or a negative control peptide consisting of the same amino acids as the MANS peptide, but in random order (RNS peptide; random N-terminal sequence (SEQ ID NO: 26):
The effect of MA-PSD peptide (1, 10 and 100 μM) on basal mucin secretion was also measured. Cells as described above were incubated for one hour with the MA-PSD peptide (no PMA or 8-Br-cGMP).

[3] = molecular target: T1, cGMP-dependent protein kinase (PKG) (Homo sapiens, UniProt Q13976); assay: PKG activity in NHBE cells; assay type: cell-based; conditions: 100 μM
T1 construct: endogenous in cells; host or cells: NHBE cells
T1 sequence (Q13976 1-671): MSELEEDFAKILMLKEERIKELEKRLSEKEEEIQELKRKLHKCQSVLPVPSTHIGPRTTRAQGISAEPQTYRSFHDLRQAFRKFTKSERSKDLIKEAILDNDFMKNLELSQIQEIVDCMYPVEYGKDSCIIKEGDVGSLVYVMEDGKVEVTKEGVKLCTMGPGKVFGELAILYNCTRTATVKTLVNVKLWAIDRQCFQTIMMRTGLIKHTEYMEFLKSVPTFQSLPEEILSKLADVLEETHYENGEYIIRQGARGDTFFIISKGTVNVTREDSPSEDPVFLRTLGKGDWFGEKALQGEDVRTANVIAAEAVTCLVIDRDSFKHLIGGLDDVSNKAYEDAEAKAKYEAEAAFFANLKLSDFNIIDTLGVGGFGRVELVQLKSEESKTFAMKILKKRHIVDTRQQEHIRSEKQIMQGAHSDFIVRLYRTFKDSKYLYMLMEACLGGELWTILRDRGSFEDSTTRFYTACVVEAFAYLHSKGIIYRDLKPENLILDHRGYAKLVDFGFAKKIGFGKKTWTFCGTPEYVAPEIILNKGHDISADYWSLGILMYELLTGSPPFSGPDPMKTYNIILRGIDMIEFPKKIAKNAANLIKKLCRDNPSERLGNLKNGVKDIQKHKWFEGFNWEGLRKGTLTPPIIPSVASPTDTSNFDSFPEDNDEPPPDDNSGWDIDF
Description: Phosphorylation of MARCKS by PMA was attenuated by Calphostin C (500 nM). NHBE cells also contained substantial amounts of cGMP-dependent protein kinase type 1α (PKG-1α) activity, which was localized to the cytosolic fraction. […] In addition, the phosphorylation of MARCKS induced by PMA was reversed by incubation with 8-Br-cGMP (10 μM).

SMILES: CCCCCCCCCCCCCC(=O)N[C@@H](CCCCN)C(=O)N[C@@H](CCCCN)C(=O)N[C@@H](CCCCN)C(=O)N[C@@H](CCCCN)C(=O)N[C@@H](CCCCN)C(=O)N[C@@H](CCCNC(=N)N)C(=O)N[C@@H](Cc1ccccc1)C(=O)N[C@@H](CO)C(=O)N[C@@H](Cc1ccccc1)C(=O)N[C@@H](CCCCN)C(=O)N[C@@H](CCCCN)C(=O)N[C@@H](CO)C(=O)N[C@@H](Cc1ccccc1)C(=O)N[C@@H](CCCCN)C(=O)N[C@@H](CC(C)C)C(=O)N[C@@H](CO)C(=O)NCC(=O)N[C@@H](Cc1ccccc1)C(=O)N[C@@H](CO)C(=O)N[C@@H](Cc1ccccc1)C(=O)N[C@@H](CCCCN)C(=O)N[C@@H](CCCCN)C(=O)N[C@@H](CC(N)=O)C(=O)N[C@@H](CCCCN)C(=O)N[C@@H](CCCCN)C(=O)O [MA-PSD peptide] (Myristoyl-KKKKKRFSFKKSFKLSGFSFKKNKK-OH; C-terminus assumed)
Mucin secretion level relative to media control ([1]; peptide 1 μM): 226%
Mucin secretion level relative to media control ([1]; peptide 10 μM): 316%
Mucin secretion level relative to media control ([1]; peptide 100 μM): 191%
Basal mucin secretion level relative to control ([2]; peptide 1 μM): 102%
Basal mucin secretion level relative to control ([2]; peptide 10 μM): 91%
Basal mucin secretion level relative to control ([2]; peptide 100 μM, no PMA or 8-Br-cGMP): 285%

PKG activity [3]: increased
SMILES: CCCC(=O)Nc1nc2c(ncn2[C@@H]2O[C@@H]3COP(=O)(O)O[C@H]3[C@H]2OC(=O)CCC)c(=O)[nH]1 [dibutryl cGMP]
